Measured values as given in PMC11360180, “Enhancement of Antimicrobial Function by L/D-Lysine Substitution on a Novel Broad-Spectrum Antimicrobial Peptide, Phylloseptin-TO2: A Structure-Related Activity Research Study” (Pharmaceutics, 2024).
Where a SMILES comes first, the peptide text is derived from it. Where no end group is shown, it is not given here. [ ]: non-standard residue; d: D form.

Assays:
[1] = tested on: K. pneumonia (ATCC 43816); assay type: cell-based, Klebsiella pneumonia; settings: ATCC 43816, 24 h
Text: (§1) Seven microorganism strains were used to preliminarily evaluate the antimicrobial activity of PSTO2 and its analogues, including Staphylococcus aureus (S. aureus) (ATCC® 6538), methicillin-resistant Staphylococcus aureus (MRSA) (NCTC® 12493), Enterococcus faecalis (E. faecalis) (NCTC® 12697), E. coli (ATCC® 8739), Klebsiella pneumonia (K. pneumonia) (ATCC® 43816), Pseudomonas aeruginosa (P. aeruginosa) (ATCC® CRM 9027), Acinetobacter baumanni (A. baumanni) (BAA® 747), and Candida albicans (C. albicans) (ATCC® 10231). In this study, the strains were cultured in Mueller–Hinton broth (MHB), nutrient broth (NB), and yeast–peptone–dextrose broth (YPD-B) correspondingly at 37 °C, with shaking at 120 rpm. Each peptide was dissolved from 128 μM to 1 μM and mixed with the bacterium at 5 × 10^5 CFU/mL. In this process, bacteria with culture medium were used as the growth control group; PBS was set up as the vehicle control group; sterile culture medium was used as the blank control group; and Norfloxacin at a concentration of 2 mg/mL and amphotericin B at a concentration of 1 mg/mL were set up as the positive control group for bacteria and fungi, respectively.
(§2) After being incubated for 24 h, a Synergy HT plate reader (Bio-Tek, Shoreline, WA, USA) was used to detect the absorbance of each well in the 96-well plate at λ = 550 nm. The concentration at which no visible turbidity could be recorded was the MIC value. Beginning from the MIC value, 10 µL of solution in each clear well was dropped on the sterile agar plates. The plate was checked the next day for colony formation, and the lowest concentration at which no colony growing was recorded as an MBC value.

[2] = tested on: E. coli (ATCC 8739); assay type: cell-based, Escherichia coli; settings: ATCC 8739, 24 h
Text: as §1, §2

[3] = tested on: MRC-5; assay type: cell-based; settings: 24 h
Method: (§3) The percentage of cancer cell survival after being treated with peptides was assessed with 3-(4,5-dimethylthiazol-2-yl-)-2,5-diphenyltetrazolium bromide (MTT). The principle is the reduction process of the yellow tetrazolium to DMSO-soluble formazan crystals caused by the metabolic capability of living cells. All the cancerous and normal cells were obtained from the American Type Culture Collection (Rockville, VA, USA). Human lung cancer NCI-H838 and NCI-H460 were cultured in Roswell Park Memorial Institute (RPMI)-1640 medium (Gibco, Paisley, UK) and mixed with 10% (v/v) fetal bovine serum (FBS) (Gibco, Campinas, Brazil) and 1% penicillin–streptomycin (Gibco, Grand Island, NY, USA) 89/10/1 v/v/v). U251MG and MCF-7 were cultured in Dulbecco’s Modified Eagle medium (DMEM) (Gibco, Paisley, UK) and mixed with 10% FBS and 1% penicillin–streptomycin. HCT 116 was cultured in McCoy’s 5A (modified) medium (Gibco, Paisley, UK) and mixed with 10% FBS and 1% penicillin–streptomycin. MRC-5 and HaCat were cultured in Minimum Essential Medium (MEM) (Gibco, Paisley, UK) and mixed with 10% FBS and 1% penicillin–streptomycin. Cells were cultured and seeded in a 96-well plate at a density of 8000 cells/well with the corresponding medium and incubated for 24 h at 37 °C with 5% CO2. After 24 h of incubation, the cells were starved with a serum-free medium for 4 h at 37 °C. Then, the cells were incubated with different concentrations of peptide solution in a serum-free medium from 1 nM to 100 µM at 37 °C for 24 h. Meanwhile, triton X-100 (0.1%) (Sigma-Aldrich, St. Louis, MO, USA) and PBS were chosen as positive and negative controls. After 10 µL of MTT (5 mg/mL) was added to each well away from light and incubated at 37 °C for 2 h, the formazan generated by mitochondria was dissolved with DMSO. The absorbance was detected at a wavelength of 570 nm by a Synergy HT plate reader (Bio-Tek, Shoreline, WA, USA).

[4] = tested on: HaCat; assay type: cell-based; settings: 24 h
Method: as §3

[5] = tested on: horse red blood cells; assay type: cell-based
Method: To assess the haemolytic activity of PSTO2 and its analogues, 2% fresh defibrinated horse red blood cells (TCS Biosciences Ltd., Buckingham, UK) were acquired after being washed and resuspended in sterile PBS. Each peptide was dissolved in PBS to prepare solutions with concentrations ranging from 2 µM to 1024 µM. Subsequently, 100 µL of each peptide solution was mixed with 100 µL of the red blood cell suspension. The red blood cells treated with 1% triton X-100 and sterile PBS in equivalent volumes were set up as the positive and negative control groups, respectively. Then, all the samples were incubated at 37 °C for 2 h. Thereafter, the samples were centrifuged at 900× g for 10 min. Finally, 100 µL of supernatant of each sample was transferred into a 96-well plate, and the absorbance was recorded by a Synergy HT plate reader (Bio-Tek, Shoreline, WA, USA) at a wavelength of 570. The following equation was used to calculate haemolysis activity:Haemolysis activity = (Sample absorbance − Ab)/(Ap − Ab) × 100% where Ab refers to the mean value of absorbance of the negative control (incubated with PBS only), and Ap refers to the mean absorbance value of the positive control (incubated with triton X-100).

Compound	MBC [1] [µM]	MIC [1] [µM]	MBC [2] [µM]	MIC [2] [µM]	IC50 [3] [µM]	IC50 [4] [µM]	HC10 [5]
CC[C@H](C)[C@H](NC(=O)[C@H](C)NC(=O)[C@@H](CCCCN)NC(=O)[C@@H]1CCCN1C(=O)[C@@H](NC(=O)[C@H](CC(C)C)NC(=O)[C@H](CO)NC(=O)[C@H](CC(C)C)NC(=O)[C@@H](N)Cc1ccccc1)[C@@H](C)CC)C(=O)N[C@@H](CCCCN)C(=O)N[C@@H](C)C(=O)N[C@H](C(=O)N[C@@H](CCCCN)C(=O)N[C@@H](C)C(=O)N[C@@H](CC(C)C)C(=O)N[C@@H](C)C(=O)N[C@@H](CCCCN)C(=O)N[C@H](CCCCN)C(=O)N[C@@H](CC(C)C)C(N)=O)C(C)C [SR2D10] (H-FLSLIP[dK]AIKAVKALAK[dK]L-NH2)	4	4	2	2	74.39	84.03	75.24
CC[C@H](C)[C@H](NC(=O)[C@H](C)NC(=O)[C@@H](CCCCN)NC(=O)[C@@H]1CCCN1C(=O)[C@@H](NC(=O)[C@H](CC(C)C)NC(=O)[C@H](CO)NC(=O)[C@H](CC(C)C)NC(=O)[C@@H](N)Cc1ccccc1)[C@@H](C)CC)C(=O)N[C@@H](CCCCN)C(=O)N[C@@H](C)C(=O)N[C@H](C(=O)N[C@@H](CO)C(=O)N[C@@H](C)C(=O)N[C@@H](CC(C)C)C(=O)N[C@@H](C)C(=O)N[C@@H](CCCCN)C(=O)N[C@@H](CCCCN)C(=O)N[C@@H](CC(C)C)C(N)=O)C(C)C [SRD7] (H-FLSLIP[dK]AIKAVSALAKKL-NH2)	–	–	2	2	77.28	77.89	74.78
FLSLIPKAIKAVKALAKKL-NH2 [SR2]	2	2	2	2	6.56	3.48	6.53
FLSLIPKAIKAVSALAKKL-NH2 [SR]	2	2	2	2	6.98	4.13	12.60
